What was measured:
Test in all cases: Weeding effect in post-emergence stage
Assay type in all cases: in vivo
Conditions in all cases: active ingredient 2000 g/ha, 3 weeks after application, fresh weight control rate
Descurainia sophia = tested on: Descurainia sophia
Method in brief: (§1)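 Control of growth was scored on fresh weight 3 weeks after a post-emergence spray-tower application. Rates were 2000, 1000, 500, 250 or 125 g/ha, formulated in acetone/Tween 80 plus methyl oleate concentrate (1.5 L/ha), and applied to potted plants at the 2-3 leaf stage.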

Abutilon theophrasti = tested on: Abutilon theophrasti
Method in brief: as §1

Chenopodium album = tested on: Chenopodium album
Method in brief: as §1

[1] = tested on: Amaranthus retroflexus L.
Method in brief: as §1

Structure (SMILES) | Weeding effect, activity level (growth control rate), Descurainia sophia (Descurainia sophia) | Weeding effect, activity level (growth control rate), Abutilon theophrasti (Abutilon theophrasti) | Weeding effect, activity level (growth control rate), Chenopodium album (Chenopodium album) | Weeding effect, activity level (growth control rate), Amaranthus retroflexus L. [1]
Cn1nccc1-c1nccc(C(=O)Nc2nnnn2C)c1Cl [Compound 1-178] | 5 (Level 5: growth control rate is above 85%) | 5 (Level 5: growth control rate is above 85%) | 5 (Level 5: growth control rate is above 85%) | 5 (Level 5: growth control rate is above 85%)
Cc1cc(-c2nccc(C(=O)Nc3nnnn3C)c2Cl)n(C)n1 [Compound 1-179] | 5 (Level 5: growth control rate is above 85%) | 5 (Level 5: growth control rate is above 85%) | 5 (Level 5: growth control rate is above 85%) | 5 (Level 5: growth control rate is above 85%)
Cn1nc(C(F)(F)F)cc1-c1nccc(C(=O)Nc2nnnn2C)c1Cl [Compound 1-180] | 5 (Level 5: growth control rate is above 85%) | 5 (Level 5: growth control rate is above 85%) | 5 (Level 5: growth control rate is above 85%) | 5 (Level 5: growth control rate is above 85%)
Cn1nnnc1NC(=O)c1ccnc(-c2ccnn2C(F)F)c1Cl [Compound 1-181] | 5 (Level 5: growth control rate is above 85%) | 5 (Level 5: growth control rate is above 85%) | 5 (Level 5: growth control rate is above 85%) | 5 (Level 5: growth control rate is above 85%)
Cn1nnnc1NC(=O)c1ccnc(-c2ccnn2C2CCCCO2)c1Cl (stereo not shown) [Compound 1-182] | 5 (Level 5: growth control rate is above 85%) | 5 (Level 5: growth control rate is above 85%) | 5 (Level 5: growth control rate is above 85%) | 5 (Level 5: growth control rate is above 85%)
Cn1nnnc1NC(=O)c1ccnc(-c2ccoc2)c1Cl [Compound 1-183] | 5 (Level 5: growth control rate is above 85%) | 5 (Level 5: growth control rate is above 85%) | 5 (Level 5: growth control rate is above 85%) | 5 (Level 5: growth control rate is above 85%)
Cn1nnnc1NC(=O)c1ccnc(-c2ccco2)c1Cl [Compound 1-184] | 5 (Level 5: growth control rate is above 85%) | 5 (Level 5: growth control rate is above 85%) | 5 (Level 5: growth control rate is above 85%) | 5 (Level 5: growth control rate is above 85%)
Cn1nnnc1NC(=O)c1ccnc(-c2ccc(C=O)o2)c1Cl [Compound 1-185] | 5 (Level 5: growth control rate is above 85%) | 5 (Level 5: growth control rate is above 85%) | 5 (Level 5: growth control rate is above 85%) | 5 (Level 5: growth control rate is above 85%)
Cn1nnnc1NC(=O)c1ccnc(-c2cccs2)c1Cl [Compound 1-186] | 5 (Level 5: growth control rate is above 85%) | 5 (Level 5: growth control rate is above 85%) | 5 (Level 5: growth control rate is above 85%) | 5 (Level 5: growth control rate is above 85%)
Cc1ccc(-c2nccc(C(=O)Nc3nnnn3C)c2Cl)s1 [Compound 1-187] | 5 (Level 5: growth control rate is above 85%) | 5 (Level 5: growth control rate is above 85%) | 5 (Level 5: growth control rate is above 85%) | 5 (Level 5: growth control rate is above 85%)
Cc1csc(-c2nccc(C(=O)Nc3nnnn3C)c2Cl)c1 [Compound 1-188] | 5 (Level 5: growth control rate is above 85%) | 5 (Level 5: growth control rate is above 85%) | 5 (Level 5: growth control rate is above 85%) | 5 (Level 5: growth control rate is above 85%)
Cn1nnnc1NC(=O)c1ccnc(-c2ccc(Cl)s2)c1Cl [Compound 1-189] | 5 (Level 5: growth control rate is above 85%) | 5 (Level 5: growth control rate is above 85%) | 5 (Level 5: growth control rate is above 85%) | 5 (Level 5: growth control rate is above 85%)
Cn1nnnc1NC(=O)c1ccnc(-c2ccc(C=O)s2)c1Cl [Compound 1-190] | 5 (Level 5: growth control rate is above 85%) | 5 (Level 5: growth control rate is above 85%) | 5 (Level 5: growth control rate is above 85%) | 5 (Level 5: growth control rate is above 85%)
CC(=O)c1ccc(-c2nccc(C(=O)Nc3nnnn3C)c2Cl)s1 [Compound 1-191] | 5 (Level 5: growth control rate is above 85%) | 5 (Level 5: growth control rate is above 85%) | 5 (Level 5: growth control rate is above 85%) | 5 (Level 5: growth control rate is above 85%)
Cn1nnnc1NC(=O)c1ccnc(-c2ccc(C#N)s2)c1Cl [Compound 1-192] | 5 (Level 5: growth control rate is above 85%) | 5 (Level 5: growth control rate is above 85%) | 5 (Level 5: growth control rate is above 85%) | 5 (Level 5: growth control rate is above 85%)
Cn1nnnc1NC(=O)c1ccnc(-c2cnoc2)c1Cl [Compound 1-193] | 5 (Level 5: growth control rate is above 85%) | 5 (Level 5: growth control rate is above 85%) | 5 (Level 5: growth control rate is above 85%) | 5 (Level 5: growth control rate is above 85%)
Cc1c(C(=O)Nc2nnnn2C)ccnc1-c1ccc(F)cc1 [Compound 1-194] | 5 (Level 5: growth control rate is above 85%) | 5 (Level 5: growth control rate is above 85%) | 5 (Level 5: growth control rate is above 85%) | 5 (Level 5: growth control rate is above 85%)
Cn1nnnc1NC(=O)c1ccnc(-c2ccc(F)cc2)c1F [Compound 1-195] | 5 (Level 5: growth control rate is above 85%) | 5 (Level 5: growth control rate is above 85%) | 5 (Level 5: growth control rate is above 85%) | 5 (Level 5: growth control rate is above 85%)
Cn1nnnc1NC(=O)c1ccnc(-c2ccc(F)cc2)c1Br [Compound 1-196] | 5 (Level 5: growth control rate is above 85%) | 5 (Level 5: growth control rate is above 85%) | 5 (Level 5: growth control rate is above 85%) | 5 (Level 5: growth control rate is above 85%)
CC(C)c1c(C(=O)Nc2nnnn2C)ccnc1-c1ccc(F)cc1 [Compound 1-197] | 5 (Level 5: growth control rate is above 85%) | 5 (Level 5: growth control rate is above 85%) | 5 (Level 5: growth control rate is above 85%) | 5 (Level 5: growth control rate is above 85%)
Cn1nnnc1NC(=O)c1ccnc(-c2ccc(F)cc2)c1C(F)(F)F [Compound 1-198] | 5 (Level 5: growth control rate is above 85%) | 5 (Level 5: growth control rate is above 85%) | 5 (Level 5: growth control rate is above 85%) | 5 (Level 5: growth control rate is above 85%)
Cn1nnnc1NC(=O)c1ccnc(-c2ccc(F)cc2)c1-c1ccccc1 [Compound 1-199] | 5 (Level 5: growth control rate is above 85%) | 5 (Level 5: growth control rate is above 85%) | 5 (Level 5: growth control rate is above 85%) | 5 (Level 5: growth control rate is above 85%)
